Data set [1] relates to cocaine-binding immunoglobulins. The data set is described as follows: Competitive binding studies of the immune response (cocaine-binding immunoglobulins). The text has this: Consequently, inhibition of cocaine-binding immunoglobulins would not be expected in vivo from these metabolites.
Data set [2] in a line: Plasma cocaine levels by HPLC. In kind it is in vivo, rat. The settings on record: 15 mg/kg i.p. The text has this: Analysis of serum immunoglobulin dissociation kinetics, antigen-binding capacity and the effect of antigen dilution (P. Minden, et al., in Handbook of Experimental Immunology. Weir, D. M., Ed., (Davis Co., Philadelphia, 1967), chap. 13, pp. 463-492; M. W. Steward et al., Antibody Affinity: Thermodynamic Aspects and Biological Significance, (CRC Press, Boca Raton, Fla., 1983); H. N. Eisen, in Methods in Medical Research. Eisen, H. N., Ed., (Yearbook Medical Publishers, Chicago, 1964), pp. 106-114; J. H. Hill, et al. Clin. Exp. Immunol. (1973): vol. 15, p 213-224.) were consistent with an in vivo antibody excess having a micromolar average binding constant. […] To complement these experiments, plasma cocaine levels were determined by HPLC according to a modified method of Benuck (M. Benuck, et al., J. Pharmacol. Exp. Ther.(1987): vol. 243, p 144-149) following a 15 mg/kg i.p. injection in a separate group of animals.

For `CN1[C@H]2CC[C@@H]1[C@@H](C(=O)O)[C@@H](OC(=O)c1ccccc1)C2` [benzoylecgonine], in data set [1] (immune response to hapten 4 conjugate), the “discrimination for cocaine versus competitor” value is “greater than 900 fold”.

A word on the half-life: it is how long it takes for the measured level to halve. `COC(=O)[C@H]1[C@@H](OC(=O)c2ccccc2)C[C@@H]2CC[C@H]1N2C` [cocaine, (−)-cocaine]: in data set [2], the peak plasma concentration stood at 5.56 ± 0.31 µM and the “time of peak plasma concentration” value came out at 5 min. The compound also gave a half-life in data set [2] (Wistar, rat, plasma, ip) of 25 min.

With `COC(=O)[C@@H]1[C@H]2CC[C@@H](C[C@@H]1O)N2C` [ecgonine methyl ester], the “inhibition of cocaine-binding by competitor” value in data set [1] is “no detectable inhibition”.

Values taken from US6383490B1, “Anti-cocaine vaccine” (The Scripps Research Institute, priority 1995, dated 2002).
